Results reported in patent US20040171073A1, “Compounds for modulation of cholesterol transport” (Massachusetts Institute of Technology, priority 2002, published 2004).
Where two headings read alike, the source gives them in different places.

Target: T1, murine SR-BI (Mus musculus, UniProt Q61009)
T1 construct: expressed in transfected cells; host or cells: ldlA-7 (LDL receptor deficient Chinese hamster ovary cells)
T1 sequence (Q61009 1-509): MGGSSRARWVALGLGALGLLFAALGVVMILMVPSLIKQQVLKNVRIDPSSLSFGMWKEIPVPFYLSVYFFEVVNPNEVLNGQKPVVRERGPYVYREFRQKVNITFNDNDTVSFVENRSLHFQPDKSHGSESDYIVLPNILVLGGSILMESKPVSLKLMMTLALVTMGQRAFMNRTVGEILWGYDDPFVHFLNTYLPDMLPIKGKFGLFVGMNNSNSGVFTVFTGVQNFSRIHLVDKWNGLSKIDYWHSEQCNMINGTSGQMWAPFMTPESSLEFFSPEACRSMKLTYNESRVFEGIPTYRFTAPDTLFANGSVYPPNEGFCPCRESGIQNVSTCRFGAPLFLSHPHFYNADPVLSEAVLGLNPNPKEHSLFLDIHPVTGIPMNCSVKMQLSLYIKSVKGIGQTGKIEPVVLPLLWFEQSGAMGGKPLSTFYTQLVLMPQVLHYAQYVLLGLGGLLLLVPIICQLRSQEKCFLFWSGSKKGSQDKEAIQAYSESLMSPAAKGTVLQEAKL
Test: Uptake of DiI from DiI-HDL by ldlA[mSR-BI] cells (high throughput screen and concentration dependence)
Format: cell-based

[1] = Test 1, DiI uptake from DiI-HDL, compounds at nominal 10 micromolar, ldlA[mSR-BI] cells
[2] = Test 2, DiI uptake from DiI-HDL, compounds at nominal 10 micromolar, ldlA[mSR-BI] cells

| Structure (SMILES) | ENDOHDL Test 1 (Test 1) | ENDOHDL Test 2 (Test 2) | also measured |
| --- | --- | --- | --- |
| CCOc1ccc(NC(=O)/C=C/c2cccc([N+](=O)[O-])c2)cc1 [MIT 9952-255] | 0.61 | 0.6 | – |
| O=C(NC(NC(=S)Nc1cc(C(F)(F)F)ccc1Cl)C(Cl)(Cl)Cl)c1ccco1 (stereo not shown) [MIT 9952-90] | 0.62 | 0.61 | – |
| O=S(=O)([O-])C(F)(F)F.O=[N+]([O-])c1ccc([I+]c2ccc(F)cc2)cc1 [MIT 9952-241] | 0.48 | 0.52 | – |
| Nc1c(C(=O)c2ccc(Br)cc2)sc2nc(-c3ccccc3)c3c(c12)CCCC3 [MIT 9952-221] | 0.62 | 0.59 | – |
| CCOC(=O)c1c(NC(=O)c2ccccc2)sc(NC(=O)c2ccccc2)c1C(=O)OCC [MIT 9952-215] | 0.57 | 0.53 | – |
| CC(C)=C/C(=N\Nc1ccc([N+](=O)[O-])cc1[N+](=O)[O-])C1CC=CCC1 (stereo not shown) [MIT 9952-288] | – | – | ENDOHDL Test 1 [1]: 0.59; ENDOHDL Test 2 [2]: 0.52 |
| O=C(/C=C/c1ccccc1)Nc1cccc(Cl)c1Cl [MIT 9952-263] | 0.66 | 0.65 | – |
| Cc1cccc(N2C(=O)CC(N3CCOCC3)C2=O)c1 (stereo not shown) [MIT 9952-80] | 1.34 | 1.2 | – |
| CC(C)c1ccc(NC(=O)/C=C/c2cccc([N+](=O)[O-])c2)cc1 [MIT 9952-274] | 0.65 | 0.6 | – |
| O=C(Nc1ccc2c(c1)S(=O)(=O)c1cc(NC(=O)c3cccc4ccccc34)ccc1-2)c1cccc2ccccc12 [MIT 9952-229] | 0.58 | 0.58 | – |
| CCSC(=O)C(NC1=C(C)C(=O)N1)c1ccccc1 (stereo not shown) [MIT 9952-292] | – | – | ENDOHDL Test 1 [1]: 0.47; ENDOHDL Test 2 [2]: 0.58 |
| O=C1CC(N2CCOCC2)C(=O)N1c1ccc(Br)cc1 (stereo not shown) [MIT 9952-96] | 1.32 | 1.17 | – |
| CCc1c2cccn2cc(C)[n+]1C.[I-] [MIT 9952-177] | 0.68 | 0.49 | – |
| COc1ccccc1C(=O)NC(Nc1cccc2ccccc12)C(Cl)(Cl)Cl (stereo not shown) [MIT 9952-134] | 0.58 | 0.59 | – |
| O=C(Nc1sc2c(c1C(=O)NCCc1ccc(O)cc1)CCCC2)c1ccccc1 [MIT 9952-296] | – | – | ENDOHDL Test 1 [1]: 0.63; ENDOHDL Test 2 [2]: 0.61 |
| O=C(CSC1=NCCN1)Nc1ccccc1 [MIT 9952-67] | 0.55 | 0.54 | – |
| CCn1c(C)c(-c2ccccc2)c2cc([N+](=O)[O-])ccc21 [MIT 9952-257] | 0.66 | 0.61 | – |
| Nc1cc2cccnc2c2ncccc12 [MIT 9952-341] | – | – | ENDOHDL Test 1 [1]: 0.61; ENDOHDL Test 2 [2]: 0.51 |
| O=C(COc1ccc(Cl)cc1)N/N=C/c1ccc(Cl)cc1 [MIT 9952-124] | 1.33 | 1.17 | – |
| O=C(O)c1ccc2c(c1)C(=O)N(c1ccc(C(=O)OCC(=O)c3ccccc3)cc1)C2=O [MIT 9952-190] | 1.47 | 1.35 | – |

| Structure (SMILES) | ENDOHDL Test 1 (Test 1) | ENDOHDL Test 2 (Test 2) | also measured |
| --- | --- | --- | --- |
| CCOC1=C(C(C)=O)NC(c2ccc(OC)cc2)C(=S)N1 (stereo not shown) [MIT 9952-278] | 0.71 | 0.67 | – |
| O=C(/C=C/c1cccc([N+](=O)[O-])c1)Nc1cccc(C(F)(F)F)c1 [MIT 9952-290] | – | – | ENDOHDL Test 1 [1]: 0.52; ENDOHDL Test 2 [2]: 0.56 |
| O=C(Nc1ccc(Cl)cc1C(=O)c1ccc(Cl)cc1)c1cc(Cl)ccc1NS(=O)(=O)c1ccc(Cl)cc1 [MIT 9952-45] | 0.44 | 0.46 | – |
| Cc1ccsc1/C=N/NC(=O)c1cccc([N+](=O)[O-])c1 [MIT 9952-323] | – | – | ENDOHDL Test 1 [1]: 0.46; ENDOHDL Test 2 [2]: 0.63 |
| CCN(CC(O)COc1ccccc1C(C)=O)S(=O)(=O)[O-].[Na+] (stereo not shown) [MIT 9952-250] | 1.28 | 1.24 | – |
| CC(=O)OCc1c(C)cc(C)c(/C=N/Nc2ccc([N+](=O)[O-])cc2)c1C [MIT 9952-273] | 0.51 | 0.48 | – |
| O=C(CC1=CCCCC1)Nc1cc([N+](=O)[O-])ccc1Cl [MIT 9952-46] | 1.32 | 1.18 | – |
| O=C(Nc1cccc(NC(=O)c2ccccc2Cl)c1)c1cccc([N+](=O)[O-])c1 [MIT 9952-213] | 0.66 | 0.57 | – |
| Cc1cc(C)c(NC(=O)C2CCCN2N)c(C)c1 (stereo not shown) [MIT 9952-276] | 0.73 | 0.68 | – |
| CCNc1ccc(N)c(C)c1C.O=S(=O)(O)O [MIT 9952-74] | 0.71 | 0.69 | – |
| Cc1cc(C(=O)N/N=C\c2c(O)ccc3ccccc23)[nH]n1 [MIT 9952-150] | 0.34 | 0.52 | – |
| O=C(Cc1ccccc1)N/N=C/c1cccn1-c1ccc([N+](=O)[O-])cc1 [MIT 9952-123] | 0.59 | 0.64 | – |
| Br.NS(=O)(=O)c1ccc(Nc2nc(-c3ccc(Cl)cc3)cs2)cc1 [MIT 9952-293] | – | – | ENDOHDL Test 1 [1]: 0.69; ENDOHDL Test 2 [2]: 0.67 |
| CCOCc1c(C)cc(C)c(/C=N/Nc2ccc([N+](=O)[O-])cc2)c1C [MIT 9952-174] | 0.6 | 0.62 | – |
| O=C(O)CSC1CCCC/C1=N\Nc1ccc([N+](=O)[O-])cc1[N+](=O)[O-] (stereo not shown) [MIT 9952-84] | 0.74 | 0.66 | – |
| COc1ccc2c(c1)c(C(C)=O)c(C)n2-c1ccccc1 [MIT 9952-335] | – | – | ENDOHDL Test 1 [1]: 0.57; ENDOHDL Test 2 [2]: 0.49 |
| O=[N+]([O-])c1cccc(-c2ccc(C(=S)N3CCCCC3)o2)c1 [MIT 9952-282] | – | – | ENDOHDL Test 1 [1]: 0.49; ENDOHDL Test 2 [2]: 0.5 |
| COc1c(Cl)cc(Cl)cc1C(=O)Nc1ccc(Br)cc1 [MIT 9952-155] | 0.69 | 0.47 | – |
| O=C(CSC1=NCCN1)Nc1ccccc1 [MIT 9952-314] | – | – | ENDOHDL Test 1 [1]: 0.55; ENDOHDL Test 2 [2]: 0.54 |
| O=[N+]([O-])c1ccc(Cl)c(/C=N/c2ccc(S(=O)(=O)c3ccc(/N=C/c4cc([N+](=O)[O-])ccc4Cl)cc3)cc2)c1 [MIT 9952-139] | 1.22 | 1.39 | – |

| Structure (SMILES) | ENDOHDL Test 1 (Test 1) | ENDOHDL Test 2 (Test 2) | also measured |
| --- | --- | --- | --- |
| COc1ccc(/C(C)=N/NC(=O)C2CC2(c2ccccc2)c2ccccc2)c(OC)c1 (stereo not shown) [MIT 9952-93] | 0.66 | 0.71 | – |
| Br.CCOC(=O)c1c(CSC(=N)N)n(C)c2cc(Br)c(OC(C)=O)cc12 [MIT 9952-146] | 0.62 | 0.71 | – |
| O=C(Nc1ccc(NC(=O)c2cccc([N+](=O)[O-])c2)c(Cl)c1)c1cccc([N+](=O)[O-])c1 [MIT 9952-162] | 0.55 | 0.4 | – |
| Cc1nc(O)c(C(c2cc([N+](=O)[O-])ccc2O)c2c(O)nc(C)nc2O)c(O)n1 [MIT 9952-82] | 1.27 | 1.4 | – |
| O=C(Nc1cc(Cl)ccc1Cl)c1cc(Br)ccc1NS(=O)(=O)c1ccc(Cl)c([N+](=O)[O-])c1 [MIT 9952-132] | – | – | ENDOHDL Test 1: 0.65; ENDOHDL Test 2: 0.46 |
| CCCCC1(OC(=O)Nc2ccc(Cl)cc2)CCCCC1 [MIT 9952-196] | 0.63 | 0.6 | – |
| CCCCN1CCC(Cl)(c2ccccc2)C(C(=O)c2ccccc2)C1 (stereo not shown) [MIT 9952-26] | 1.28 | 1.32 | – |
| NCC[Se][Se]CCN [MIT 9952-318] | – | – | ENDOHDL Test 1 [1]: 0.67; ENDOHDL Test 2 [2]: 0.81 |
| C=C(N/N=C(\C)c1ccccc1C(=O)O)c1ccccc1 [MIT 9952-56] | 1.26 | 1.26 | – |
| O=C(Nc1cc(Sc2nc3ccccc3s2)cc([N+](=O)[O-])c1)c1ccc(F)c(F)c1 [MIT 9952-231] | 0.46 | 0.54 | – |
| CC(C)(C)c1ccc(C(=O)Nc2cccc(NC(=O)c3cccc([N+](=O)[O-])c3)c2)cc1 [MIT 9952-214] | 0.63 | 0.35 | – |
| O=C(Nc1cc2c(cc1C(=O)c1ccccc1)OCCO2)c1ccc(Br)cc1 [MIT 9952-188] | 0.61 | 0.58 | – |
| CC1(C)C(C(=O)OCC(=O)c2ccc([N+](=O)[O-])cc2)CCC1C(=O)OCC(=O)c1ccc([N+](=O)[O-])cc1 (stereo not shown) [MIT 9952-129] | 0.57 | 0.54 | – |
| CC(C)C(=O)NC(NC(=S)Nc1cccc(C(=O)Cl)c1)C(Cl)(Cl)Cl (stereo not shown) [MIT 9952-117] | 1.26 | 1.58 | – |
| O=C(O)c1cc(C(=O)O)nc(C(=O)O)c1 [MIT 9952-60] | 1.13 | 1.17 | – |
| Cl.c1ccc(CCNC2CCCc3c2[nH]c2ccc(C4CCCCC4)cc32)cc1 (stereo not shown) [MIT 9952-258] | 0.51 | 1.0 | – |
| O=[N+]([O-])c1cccc(/C=N\Nc2nc(Nc3ccc(Cl)cc3)nc(N3CCOCC3)n2)c1 [MIT 9952-209] | 0.46 | 0.59 | – |
| O=C(N/N=C\c1cccn1-c1ccc([N+](=O)[O-])cc1)c1ccccc1 [MIT 9952-199] | 0.52 | 0.46 | – |
| CCOC(=O)c1c(/N=C/c2ccccc2[N+](=O)[O-])sc2c1CCCC2 [MIT 9952-187] | 0.33 | 0.46 | – |
